Data on twelve molecules can be found in patent US9670208B2, “Serine/threonine kinase inhibitors” (Array BioPharma Inc., priority 2013, dated 2017).

Assay [1] has as its system PMA-stimulated P90RSK(Ser380) phosphorylation in HepG2 cells. Description: Cellular P90RSK(Ser380) Phosphorylation Assay. It is filed as cell-based. The following applies: Homo sapiens, 1.5 hours compound incubation, PMA 100 ng/mL, normalized to GAPDH, single assay or mean of multiple assays, read-out: Biological Example 2 IC50. How it is done:
Inhibition of PMA-stimulated P90RSK(Ser380) phosphorylation was determined by the following in vitro cellular mechanistic assay, which comprises incubating cells with a compound for 1.5 hours and quantifying fluorescent pP90RSK(Ser380) signal on fixed cells and normalizing to GAPDH signal.
HepG2 cells were obtained from ATCC (Manassas, Va.) and grown in DMEM supplemented with 10% fetal bovine serum. Cells were plated in 96-well plates at 35,000 cells/well and allowed to attach overnight at 37° C./5% CO2. Diluted compounds were then added at a final concentration of 0.5% DMSO. After 1.5 hours compound incubation, cells were stimulated with the addition of phorbol 12-myristate 13-acetate (“PMA”) at a final concentration of 100 ng/mL; the PMA stimulation was a 30-minute incubation at 37° C./5% CO2. After the 30-minute PMA stimulation, cells were washed with phosphate buffered saline (“PBS”) and fixed in 3.7% formaldehyde in PBS at room temperature for 15-20 minutes. This was followed by another wash in PBS and then permeabilization in 100% MeOH at room temperature for 10-15 minutes. Following the permeabilization incubation, cells were washed in PBS/0.05% Tween-20, followed by a block in Odyssey blocking buffer (LI-COR Biosciences) for at least 1 hour. Antibodies to phosphorylated P90RSK(Ser380) (Cell Signaling #9335, rabbit monoclonal) and GAPDH (Fitzgerald 10R-G109a, mouse monoclonal) were added to the cells and incubated overnight at 4° C. pP90RSK(Ser380) antibody was used at a 1:250 dilution; GAPDH was used at a 1:10,000 dilution. After washing with PBS/0.05% Tween-20, the cells were incubated with fluorescently-labeled secondary antibodies (Anti-rabbit-Alexa Flour680, Invitrogen Cat#A21109; Anti-mouse-IRDye800CW, Rockland Inc. Cat#610-131-121) for 1 hour. Both secondary antibodies were used at a 1:1000 dilution. Cells were then washed and analyzed for fluorescence at both wavelengths using the Odyssey Infrared Imaging System (LI-COR Biosciences). Phosphorylated P90RSK(Ser380) signal was normalized to GAPDH signal.

Assay [2] concerns the target human ERK-2 (Mitogen Activated Kinase 1) (Homo sapiens (Human), UniProt P28482). As to the kind of experiment: ERK-2 Enzymatic Assay. The conditions noted are these: ERK-2 enzyme, 25 μM ATP; single assay or mean of multiple assays; read-out: Biological Example 1 IC50. In kind it is biochemical.

Each structure is given as a SMILES string. A value given as a limit tells only on which side of the number the result lay.

Chain of human ERK-2 (Mitogen Activated Kinase 1) (P28482 8-360): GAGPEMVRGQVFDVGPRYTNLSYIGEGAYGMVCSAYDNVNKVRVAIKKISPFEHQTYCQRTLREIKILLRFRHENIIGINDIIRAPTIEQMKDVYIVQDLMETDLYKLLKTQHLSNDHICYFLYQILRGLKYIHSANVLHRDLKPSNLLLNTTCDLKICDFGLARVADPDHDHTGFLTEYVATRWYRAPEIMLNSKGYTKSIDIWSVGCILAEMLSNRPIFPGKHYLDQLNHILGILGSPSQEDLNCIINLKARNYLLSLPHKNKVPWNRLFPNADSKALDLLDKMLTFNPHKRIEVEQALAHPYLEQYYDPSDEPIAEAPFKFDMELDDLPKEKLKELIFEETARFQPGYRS

By IC50 is commonly meant the concentration at which inhibition is half-maximal. As to `COc1ccc(Cc2nnc3cc(-c4nc(NC5CCOCC5)ncc4F)ccn23)cc1` [Example 123, 5-fluoro-4-(3-(4-methoxybenzyl)-[1,2,4]triazolo[4,3-a]pyridin-7-yl)-N-(tetrahydro-2H-pyran-4-yl)pyrimidin-2-amine], the IC50 in assay [1] turned out to be 25.6 nM; in assay [2], 2.8 nM. As for `CCOCCc1nnc2cc(-c3ccnc(Nc4ccnn4C)n3)ccn12` [Example 111, 4-(3-(2-ethoxyethyl)-[1,2,4]triazolo[4,3-a]pyridin-7-yl)-N-(1-methyl-1H-pyrazol-5-yl)pyrimidin-2-amine], the IC50 was found to be 27.9 nM in assay [1] and 2.9 nM in assay [2]. As for `COc1ccc(Cc2nnc3cc(-c4ccnc(Nc5ccnn5C)n4)ccn23)cc1F` [Example 40, 4-(3-(3-fluoro-4-methoxybenzyl)-[1,2,4]triazolo[4,3-a]pyridin-7-yl)-N-(1-methyl-1H-pyrazol-5-yl)pyrimidin-2-amine], the IC50 in assay [1] stood at 6.5 nM; in assay [2] it was 3.3 nM. As to `Cn1nccc1Nc1nccc(-c2ccn3c(C4OCCc5ccccc54)nnc3c2)n1` (stereo not drawn) [Example 192, 4-(3-(isochroman-1-yl)-[1,2,4]triazolo[4,3-a]pyridin-7-yl)-N-(1-methyl-1H-pyrazol-5-yl)pyrimidin-2-amine], the results for the IC50 in assay [1] and in assay [2] were 37.5 nM and 6 nM, respectively. Regarding `Cn1nccc1Nc1nccc(-c2ccn3c(Cc4cc(C5CC5)ccn4)nnc3c2)n1` [Example 35, 4-(3-((4-cyclopropylpyridin-2-yl)methyl)-[1,2,4]triazolo[4,3-a]pyridin-7-yl)-N-(1-methyl-1H-pyrazol-5-yl)pyrimidin-2-amine], the IC50 in assay [1] was 17 nM; in assay [2], 0.8 nM.

With `COc1ccc(Cc2nnc3cc(-c4ccnc(NC5CCOCC5)n4)ccn23)cn1` [Example 272, 4-(3-((6-methoxypyridin-3-yl)methyl)-[1,2,4]triazolo[4,3-a]pyridin-7-yl)-N-(tetrahydro-2H-pyran-4-yl)pyrimidin-2-amine], the results for the IC50 in assay [1] and in assay [2] were 95.4 nM and 0.9 nM, respectively. For `Cn1nccc1Nc1nccc(-c2ccn3c(C(=O)N4CCCC4)nnc3c2)n1` [Example 512, (7-(2-((1-methyl-1H-pyrazol-5-yl)amino)pyrimidin-4-yl)-[1,2,4]triazolo[4,3-a]pyridin-3-yl)(pyrrolidin-1-yl)methanone], in that order: > 5000 nM and 172 nM. With `Cn1nccc1Nc1nccc(-c2ccn3c(Cc4cccc(Cl)c4Cl)nnc3c2)n1` [Example 57, 4-(3-(2,3-dichlorobenzyl)-[1,2,4]triazolo[4,3-a]pyridin-7-yl)-N-(1-methyl-1H-pyrazol-5-yl)pyrimidin-2-amine], the IC50 in assay [1] is 4.6 nM; in assay [2] it was 0.5 nM. In the case of `CN1CC(Oc2c(F)cccc2F)CC(c2nnc3cc(-c4ccnc(Nc5ccnn5C)n4)ccn23)C1` (stereo not drawn) [Example 113, 4-(3-(5-(2,6-difluorophenoxy)-1-methylpiperidin-3-yl)-[1,2,4]triazolo[4,3-a]pyridin-7-yl)-N-(1-methyl-1H-pyrazol-5-yl)pyrimidin-2-amine], the IC50 is 38 nM in assay [1] and 3.4 nM in assay [2]. As to `c1cc(-c2ccn3c(C4CNCCO4)nnc3c2)nc(NC2CCOCC2)n1` (stereo not drawn) [Example 387, 4-(3-(morpholin-2-yl)-[1,2,4]triazolo[4,3-a]pyridin-7-yl)-N-(tetrahydro-2H-pyran-4-yl)pyrimidin-2-amine], in assay [2], the IC50 worked out at 117 nM. For `CN1C(=O)CC(c2ccccc2)C1c1nnc2cc(-c3ccnc(NC4CCOCC4)n3)ccn12` (stereo not drawn) [Example 136, 1-methyl-4-phenyl-5-(7-(2-((tetrahydro-2H-pyran-4-yl)amino)pyrimidin-4-yl)-[1,2,4]triazolo[4,3-a]pyridin-3-yl)pyrrolidin-2-one], the IC50 in assay [2] was 171 nM. On the same count and under the same terms, under `Cc1cc(-c2nnc3cc(-c4ccnc(Nc5cnn(C)c5)n4)ccn23)nn1-c1ccc(F)cc1` [Example 419, 4-(3-(1-(4-fluorophenyl)-5-methyl-1H-pyrazol-3-yl)-[1,2,4]triazolo[4,3-a]pyridin-7-yl)-N-(1-methyl-1H-pyrazol-4-yl)pyrimidin-2-amine] stands 135 nM.
